Laboratory results published in patent US8129417B2, “Substituted octahydrocyclopenta[C]pyrrol-4-amines as calcium channel blockers” (Abbott Laboratories, priority 2008, dated 2012).

Experiments:
human Cav2.2 = human Cav2.2 (Homo sapiens, UniProt Q00975); assay: Assessment of calcium channel activity using FLIPR (Ca2+ influx in IMR32 cells); format: cell-based; conditions: 60 minute pre-incubation with compound, 2 μM nifedipine, depolarized with 80 mM KCl
How it was run: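 IMR32 neuroblastoma cells seeded at 1-1.2×10^5 cells/well and grown 48 h at 37 °C before FLIPR Ca2+ influx read. Percent inhibition at each concentration vs no-inhibitor activity; IC50 by non-linear sigmoidal dose-response fit.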

Sprague Dawley rats = assay: Capsaicin induced secondary mechanical hyperalgesia model; format: in vivo; conditions: po, 1 h, read-out: % inhibition @ 30 mg/kg p.o., 60 minutes before testing, secondary mechanical hyperalgesia 180 minutes after intraplantar capsaicin, rat
Description: (ii) In Vivo Data—Capsaicin Induced Secondary Mechanical Hyperalgesia Model:
Sprague Dawley rats were briefly restrained, and capsaicin was administered at 10 μg in 10 μL of vehicle by intraplantar injection into the center of the right hind paw. Secondary mechanical hyperalgesia (SMH) was measured at the heel away from the site of injection 180 minutes following capsaicin exposure. Compounds and gabapentin (positive control), were administered p.o. 60 minutes before testing (2 hours after capsaicin) or i.p. 30 minutes before testing (2.5 hours after capsaicin). SMH was measured using calibrated von Frey filaments (Stoelting, Woodale, Ill.). Following the 1 hour habituation in the testing room, rats were moved to individual plexiglass chambers that sit on top of a wire mesh to allow for access for stimulation of the plantar surface of the hind paws. Rats were allowed to acclimate to the new chambers for 15 minutes before the onset of testing. The paw withdrawal threshold was determined by increasing and decreasing stimulus intensity (force: g) and calculated using Dixon's up-down method (Chaplan, S. R.; Bach, F. W.; Pogrel, J. W.; Chung, J. M.; Yaksh, T. L.; Quantitative assessment of tactile allodynia in the rat paw. J. Neuroscience Methods 1994, 53(1), 55-63.). The filaments (maximum force of 15.0 g) were held in place for 8 seconds or until there was a withdrawal response from the mechanical stimulation.

Chain of human Cav2.2 (Q00975 whole entry): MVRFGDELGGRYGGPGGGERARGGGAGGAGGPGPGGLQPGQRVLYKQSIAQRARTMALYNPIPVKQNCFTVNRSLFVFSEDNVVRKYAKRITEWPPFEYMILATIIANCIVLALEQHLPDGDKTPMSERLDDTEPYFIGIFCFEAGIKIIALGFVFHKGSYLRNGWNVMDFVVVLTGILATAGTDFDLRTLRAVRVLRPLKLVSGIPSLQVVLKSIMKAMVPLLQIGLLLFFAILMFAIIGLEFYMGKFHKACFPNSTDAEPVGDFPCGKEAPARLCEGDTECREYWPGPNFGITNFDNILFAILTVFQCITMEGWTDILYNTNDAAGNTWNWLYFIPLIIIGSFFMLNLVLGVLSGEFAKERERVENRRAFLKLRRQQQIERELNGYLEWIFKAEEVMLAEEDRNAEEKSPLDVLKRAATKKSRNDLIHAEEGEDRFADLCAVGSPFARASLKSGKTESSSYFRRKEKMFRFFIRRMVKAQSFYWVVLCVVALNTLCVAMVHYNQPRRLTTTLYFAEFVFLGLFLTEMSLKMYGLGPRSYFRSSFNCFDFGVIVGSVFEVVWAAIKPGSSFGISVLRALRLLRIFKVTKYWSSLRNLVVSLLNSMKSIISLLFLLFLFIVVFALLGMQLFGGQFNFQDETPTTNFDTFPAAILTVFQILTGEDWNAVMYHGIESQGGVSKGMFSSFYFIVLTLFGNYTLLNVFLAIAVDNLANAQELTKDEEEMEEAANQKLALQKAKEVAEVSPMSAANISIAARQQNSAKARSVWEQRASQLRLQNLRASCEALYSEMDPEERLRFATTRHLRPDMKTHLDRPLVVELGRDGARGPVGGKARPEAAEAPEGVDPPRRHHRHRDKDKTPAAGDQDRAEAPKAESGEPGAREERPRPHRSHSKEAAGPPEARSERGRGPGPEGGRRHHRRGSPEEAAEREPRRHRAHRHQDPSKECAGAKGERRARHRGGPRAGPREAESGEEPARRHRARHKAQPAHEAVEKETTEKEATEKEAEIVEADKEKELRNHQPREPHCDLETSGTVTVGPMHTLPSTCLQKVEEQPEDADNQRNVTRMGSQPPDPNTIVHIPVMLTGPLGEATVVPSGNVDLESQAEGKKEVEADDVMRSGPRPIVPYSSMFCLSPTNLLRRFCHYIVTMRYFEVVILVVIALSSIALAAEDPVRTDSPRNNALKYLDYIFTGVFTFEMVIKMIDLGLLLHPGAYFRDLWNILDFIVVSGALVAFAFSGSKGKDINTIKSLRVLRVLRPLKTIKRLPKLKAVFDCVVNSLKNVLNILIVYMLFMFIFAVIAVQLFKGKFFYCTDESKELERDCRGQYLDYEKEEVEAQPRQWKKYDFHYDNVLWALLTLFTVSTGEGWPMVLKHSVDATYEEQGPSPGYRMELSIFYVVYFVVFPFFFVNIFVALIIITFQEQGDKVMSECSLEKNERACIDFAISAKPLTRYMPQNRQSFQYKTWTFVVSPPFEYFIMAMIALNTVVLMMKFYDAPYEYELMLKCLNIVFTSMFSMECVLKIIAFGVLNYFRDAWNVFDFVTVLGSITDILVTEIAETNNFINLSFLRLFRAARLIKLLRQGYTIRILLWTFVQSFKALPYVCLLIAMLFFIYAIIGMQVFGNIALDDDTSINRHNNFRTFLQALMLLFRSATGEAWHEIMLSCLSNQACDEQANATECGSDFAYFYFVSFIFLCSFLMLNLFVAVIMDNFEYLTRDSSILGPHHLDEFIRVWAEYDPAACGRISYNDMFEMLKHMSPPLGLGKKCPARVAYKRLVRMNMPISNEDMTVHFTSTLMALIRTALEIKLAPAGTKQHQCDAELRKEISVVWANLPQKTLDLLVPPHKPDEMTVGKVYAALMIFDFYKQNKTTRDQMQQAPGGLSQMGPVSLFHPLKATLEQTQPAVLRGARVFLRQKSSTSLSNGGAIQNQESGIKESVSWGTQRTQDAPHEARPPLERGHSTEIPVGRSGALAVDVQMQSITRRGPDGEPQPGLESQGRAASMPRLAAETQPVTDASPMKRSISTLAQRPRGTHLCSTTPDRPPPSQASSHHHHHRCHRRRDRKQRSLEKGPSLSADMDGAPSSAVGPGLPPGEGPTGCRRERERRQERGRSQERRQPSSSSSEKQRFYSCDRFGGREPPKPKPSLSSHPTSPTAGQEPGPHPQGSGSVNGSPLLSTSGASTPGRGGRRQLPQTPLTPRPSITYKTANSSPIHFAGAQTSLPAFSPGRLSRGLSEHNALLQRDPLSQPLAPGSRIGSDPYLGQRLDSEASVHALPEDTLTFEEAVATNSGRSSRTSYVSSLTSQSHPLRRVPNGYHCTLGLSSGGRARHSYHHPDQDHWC
Chain of human Cav2.2 (P54289 25-946 partner limits assumed): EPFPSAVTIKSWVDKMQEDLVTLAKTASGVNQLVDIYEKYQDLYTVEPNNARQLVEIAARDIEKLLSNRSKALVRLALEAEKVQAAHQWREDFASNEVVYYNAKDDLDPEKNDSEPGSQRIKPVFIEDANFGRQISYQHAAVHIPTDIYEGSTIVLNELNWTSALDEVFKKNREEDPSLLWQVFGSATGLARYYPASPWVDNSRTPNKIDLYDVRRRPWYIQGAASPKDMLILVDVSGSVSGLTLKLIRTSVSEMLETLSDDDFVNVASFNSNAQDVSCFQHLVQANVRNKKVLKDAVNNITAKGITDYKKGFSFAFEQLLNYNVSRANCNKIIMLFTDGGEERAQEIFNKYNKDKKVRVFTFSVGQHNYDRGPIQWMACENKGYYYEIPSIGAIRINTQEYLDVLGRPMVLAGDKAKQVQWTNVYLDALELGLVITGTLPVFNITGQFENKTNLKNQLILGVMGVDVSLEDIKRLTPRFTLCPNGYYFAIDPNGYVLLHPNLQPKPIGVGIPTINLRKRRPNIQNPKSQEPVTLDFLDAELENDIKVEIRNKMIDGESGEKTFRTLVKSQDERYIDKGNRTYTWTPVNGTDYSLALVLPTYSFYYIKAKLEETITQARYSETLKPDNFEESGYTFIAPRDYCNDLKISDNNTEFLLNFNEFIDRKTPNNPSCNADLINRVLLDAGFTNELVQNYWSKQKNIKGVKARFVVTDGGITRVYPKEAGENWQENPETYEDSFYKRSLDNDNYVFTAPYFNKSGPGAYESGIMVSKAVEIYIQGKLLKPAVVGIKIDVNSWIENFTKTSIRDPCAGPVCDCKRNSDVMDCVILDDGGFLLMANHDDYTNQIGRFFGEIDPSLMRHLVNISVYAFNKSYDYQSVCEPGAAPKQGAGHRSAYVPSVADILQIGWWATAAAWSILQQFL
Chain of human Cav2.2 (P54289 947-1103 partner limits assumed): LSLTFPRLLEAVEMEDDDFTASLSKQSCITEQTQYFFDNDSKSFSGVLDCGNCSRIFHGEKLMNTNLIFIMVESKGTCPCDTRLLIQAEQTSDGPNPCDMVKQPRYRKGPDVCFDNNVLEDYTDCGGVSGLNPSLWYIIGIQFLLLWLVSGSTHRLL
Chain of human Cav2.2 (P54284 whole entry partner): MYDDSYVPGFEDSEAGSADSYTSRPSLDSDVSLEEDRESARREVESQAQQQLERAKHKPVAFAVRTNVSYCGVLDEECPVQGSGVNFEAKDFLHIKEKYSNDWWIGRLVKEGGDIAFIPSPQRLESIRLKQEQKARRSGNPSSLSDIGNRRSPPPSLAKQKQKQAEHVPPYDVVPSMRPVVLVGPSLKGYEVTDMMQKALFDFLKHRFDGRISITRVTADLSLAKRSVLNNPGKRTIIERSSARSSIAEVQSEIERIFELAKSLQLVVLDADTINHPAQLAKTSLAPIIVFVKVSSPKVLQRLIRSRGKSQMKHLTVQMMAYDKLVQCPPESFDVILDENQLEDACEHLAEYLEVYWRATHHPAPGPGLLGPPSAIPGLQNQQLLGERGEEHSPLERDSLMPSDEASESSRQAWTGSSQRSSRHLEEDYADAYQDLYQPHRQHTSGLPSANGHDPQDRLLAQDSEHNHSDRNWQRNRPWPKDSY

Structure (SMILES) | IC50 (human Cav2.2) [µM] | inhibition in vivo at 30 mg/kg (Sprague Dawley rats) [%]
O=C(N[C@H]1CC[C@H]2CN(Cc3cccc(C(F)(F)F)c3)C[C@H]21)C(C1CCCCC1)C1CCCCC1 [Example 54, 2,2-dicyclohexyl-N-{(3aS,4S,6aR)-2-[3-(trifluoromethyl)benzyl]octahydrocyclopenta[c]pyrrol-4-yl}acetamide] | 0.5 | 38
O=C(N[C@@H]1CC[C@H]2CN(Cc3cccc(C(F)(F)F)c3)C[C@H]21)C(C1CCCCC1)C1CCCCC1 [Example 75, 2,2-dicyclohexyl-N-{(3aS,4R,6aR)-2-[3-(trifluoromethyl)benzyl]octahydrocyclopenta[c]pyrrol-4-yl}acetamide] | 0.5 | 85
O=C(N[C@H]1CC[C@@H]2CN(Cc3cccc(C(F)(F)F)c3)C[C@@H]21)C(C1CCCCC1)C1CCCCC1 [Example 156, 2,2-dicyclohexyl-N-{(3aR,4S,6aS)-2-[3-(trifluoromethyl)benzyl]octahydrocyclopenta[c]pyrrol-4-yl}acetamide] | 0.8 | 67
O=C(N[C@@H]1CC[C@@H]2CN(Cc3cccc(C(F)(F)F)c3)C[C@@H]21)C(C1CCCCC1)C1CCCCC1 [Example 157, 2,2-dicyclohexyl-N-{(3aR,4R,6aS)-2-[3-(trifluoromethyl)benzyl]octahydrocyclopenta[c]pyrrol-4-yl}acetamide] | 2.1 | 57
CN[C@@H](CC(C)C)C(=O)N[C@@H]1CC[C@H]2CN(Cc3ccccc3)C[C@H]21 [Example 165, N^1-[(3aS,4R,6aR)-2-benzyloctahydrocyclopenta[c]pyrrol-4-yl]-N^2-methyl-L-leucinamide] | 33.3 | 92
CC(C)C[C@@H](C(=O)N[C@@H]1CC[C@H]2CN(Cc3ccccc3)C[C@H]21)N1CCCS1(=O)=O [Example 220, (2S)—N-[(3aS,4R,6aR)-2-benzyloctahydrocyclopenta[c]pyrrol-4-yl]-2-(1,1-dioxidoisothiazolidin-2-yl)-4-methylpentanamide] | > 9 | 76
CCC[C@H](NC(=O)OC(C)C)C(=O)N[C@H]1CC[C@@H]2CN(Cc3ccc(C(F)(F)F)cc3)C[C@@H]21 [Example 280, isopropyl(S)-1-oxo-1-((3aR,4S,6aS)-2-(4-(trifluoromethyl)benzyl)octahydrocyclopenta[c]pyrrol-4-ylamino)pentan-2-ylcarbamate] | 5.04 | 38
CN[C@@H](CC(C)(C)C)C(=O)N[C@H]1CC[C@@H]2CN(S(=O)(=O)c3ccc(C(F)(F)F)cc3)C[C@@H]21 [Example 415, N^2,4-dimethyl-N^1-((3aR,4S,6aS)-2-{[4-(trifluoromethyl)phenyl]sulfonyl}octahydrocyclopenta[c]pyrrol-4-yl)-L-leucinamide] | 2.97 | 52
CC(C)(C)C[C@H](NCC1CC1)C(=O)N[C@H]1CC[C@@H]2CN(c3ccc(C(F)(F)F)cn3)C[C@@H]21 [Example 478, N^2-(cyclopropylmethyl)-4-methyl-N^1-{(3aR,4S,6aS)-2-[5-(trifluoromethyl)pyridin-2-yl]octahydrocyclopenta[c]pyrrol-4-yl}-L-leucinamide] | 0.75 | 57
CC(C)N[C@@H](CC(C)(C)C)C(=O)N[C@H]1CC[C@@H]2CN(C(=O)[C@H](CC(C)(C)C)NC(C)C)C[C@@H]21 [Example 488, N^2-isopropyl-N^1-[(3aR,4S,6aS)-2-(N-isopropyl-4-methyl-L-leucyl)octahydrocyclopenta[c]pyrrol-4-yl]-4-methyl-L-leucinamide] | 7.43 | 55
CC(C)N[C@@H](CC(C)(C)C)C(=O)N[C@H]1CC[C@@H]2CN(C(=O)[C@H](Cc3ccccc3)NC(C)C)C[C@@H]21 [Example 489, N^2-isopropyl-N^1-[(3aR,4S,6aS)-2-(N-isopropyl-L-phenylalanyl)octahydrocyclopenta[c]pyrrol-4-yl]-4-methyl-L-leucinamide] | 9.76 | 47
O=C(N[C@H]1CC[C@@H]2CN(c3cccc(C(F)(F)F)n3)C[C@@H]21)c1ccc(F)cc1 [Example 560, 4-fluoro-N-{(3aR,4S,6aS)-2-[6-(trifluoromethyl)pyridin-2-yl]octahydrocyclopenta[c]pyrrol-4-yl}benzamide] | 1.45 | 42
